Reference: patent US7459277B2, “Mammalian T1R3 sweet taste receptors” (The Regents of the University of California, priority 2003, dated 2008)

What was measured:
[1] = tested on: T1R2 KO mice expressing a human T1R2 gene; assay: Behavioral taste responses of mice expressing a human T1R2 transgene; type: in vivo, mouse; details: humanized T1R2 mice (T1R2 KO + hT1R2 transgene); monellin ~10 uM, thaumatin ~5 uM, aspartame 10 mM, glycyrrhizic acid 500 uM, neohesperidin dihydrochalcone 400 uM
[2] = target: T1, human T1R2 and mouse T1R3 GPCRs (UniProt Q8TE23+Q925D8); assay: HEK cells transfected with human T1R2 and mouse T1R3; type: cell-based
T1 construct: expressed in transfected cells; host or cells: HEK cells
T1 sequence (Q8TE23 20-839): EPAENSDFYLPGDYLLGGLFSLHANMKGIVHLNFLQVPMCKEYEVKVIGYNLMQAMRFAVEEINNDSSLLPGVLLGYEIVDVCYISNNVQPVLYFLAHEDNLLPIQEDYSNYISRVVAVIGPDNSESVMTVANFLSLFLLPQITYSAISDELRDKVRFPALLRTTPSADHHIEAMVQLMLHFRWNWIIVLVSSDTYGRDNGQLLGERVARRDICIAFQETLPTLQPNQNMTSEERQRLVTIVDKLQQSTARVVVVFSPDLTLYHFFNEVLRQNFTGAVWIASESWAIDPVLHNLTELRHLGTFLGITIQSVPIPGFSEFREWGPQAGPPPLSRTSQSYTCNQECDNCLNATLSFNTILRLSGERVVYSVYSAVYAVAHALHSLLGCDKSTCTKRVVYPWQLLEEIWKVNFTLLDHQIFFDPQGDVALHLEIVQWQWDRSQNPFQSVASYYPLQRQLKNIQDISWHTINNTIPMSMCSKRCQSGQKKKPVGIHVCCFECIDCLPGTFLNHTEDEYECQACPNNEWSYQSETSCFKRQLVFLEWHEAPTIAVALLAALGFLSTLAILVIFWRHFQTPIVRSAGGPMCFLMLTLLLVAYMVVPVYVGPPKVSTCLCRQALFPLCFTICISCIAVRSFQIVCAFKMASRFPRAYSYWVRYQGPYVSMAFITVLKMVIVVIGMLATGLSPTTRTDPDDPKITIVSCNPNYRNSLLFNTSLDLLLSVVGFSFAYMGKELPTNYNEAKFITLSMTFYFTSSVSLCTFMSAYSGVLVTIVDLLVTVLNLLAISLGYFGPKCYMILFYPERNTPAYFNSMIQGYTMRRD
T1 sequence (Q925D8 21-858): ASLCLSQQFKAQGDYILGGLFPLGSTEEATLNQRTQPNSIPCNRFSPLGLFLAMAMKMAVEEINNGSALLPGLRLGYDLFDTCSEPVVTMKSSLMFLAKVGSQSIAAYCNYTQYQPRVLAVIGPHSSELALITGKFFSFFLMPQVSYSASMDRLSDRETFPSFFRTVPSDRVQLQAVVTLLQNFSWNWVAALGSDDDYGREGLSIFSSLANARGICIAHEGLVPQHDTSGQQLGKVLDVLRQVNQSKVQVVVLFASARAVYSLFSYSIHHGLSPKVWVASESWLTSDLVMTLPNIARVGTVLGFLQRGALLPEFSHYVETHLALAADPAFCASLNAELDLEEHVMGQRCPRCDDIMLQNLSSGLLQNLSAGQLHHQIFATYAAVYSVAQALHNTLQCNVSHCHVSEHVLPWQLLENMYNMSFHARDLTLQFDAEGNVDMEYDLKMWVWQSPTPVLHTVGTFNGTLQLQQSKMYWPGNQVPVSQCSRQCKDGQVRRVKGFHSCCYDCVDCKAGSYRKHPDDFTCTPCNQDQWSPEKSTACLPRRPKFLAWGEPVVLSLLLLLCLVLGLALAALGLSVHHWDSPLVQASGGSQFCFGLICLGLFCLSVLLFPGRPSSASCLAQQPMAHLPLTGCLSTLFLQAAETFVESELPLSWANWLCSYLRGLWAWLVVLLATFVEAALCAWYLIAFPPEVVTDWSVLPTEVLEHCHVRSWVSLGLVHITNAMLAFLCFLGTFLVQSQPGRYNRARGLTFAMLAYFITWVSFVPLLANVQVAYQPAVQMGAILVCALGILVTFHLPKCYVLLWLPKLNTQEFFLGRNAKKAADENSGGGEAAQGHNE
Description: (§1) We generated mice that were homozygous for the T1R2 KO allele, but instead expressed a human T1R2 transgene in the native “T1R2-cells”. A 12 kb genomic clone containing the T1R2 regulatory sequences was fused to a hT1R2 full length cDNA and introduced into T1R2 KO mice. Multiple independent lines were assayed for their selectivity and sensitivity to sweet tastants. To examine expression of hT1R2, we performed two-color fluorescent in situ hybridization experiments in transgenic animals carrying the wild type mT1R2 allele. […] Taken together, these experiments validate T1Rs as key determinants of differences in sweet taste selectivity and specificity between rodents and humans, and further substantiate T1R2+3, and T1R2-expressing cells, as an principal mediator of sweet taste in vivo. Finally, we propose that polymorphisms in both T1R2 and T1R3 are important determinants of human individual sweet taste preferences.
(§2) Modified HEK-293 cells (PEAK^rapid cells; Edge BioSystems, Md.) were grown, transfected with T1Rs and promiscuous G-proteins and assayed for functional responses to tastants by Ca-imaging essentially as described previously (Nelson, G. et al., Cell, 106, 381-390 (2001)). […] Acquisition and analysis of fluorescence images used TILL-Vision software.

rodents = details: 100 times higher concentrations than sweet to humans; cited from earlier work
[3] = target: T2, human T1R2 and human T1R3 (Homo sapiens, UniProt Q7RTX0+Q8TE23); assay: Cells transfected with human T1R2 and human T1R3; type: cell-based
T2 construct: expressed in transfected cells; host or cells: cells (HEK inferred from the preceding sentence and b309)
T2 sequence (Q8TE23 20-839): T1 sequence (Q8TE23 20-839)
T2 sequence (Q7RTX0 21-852): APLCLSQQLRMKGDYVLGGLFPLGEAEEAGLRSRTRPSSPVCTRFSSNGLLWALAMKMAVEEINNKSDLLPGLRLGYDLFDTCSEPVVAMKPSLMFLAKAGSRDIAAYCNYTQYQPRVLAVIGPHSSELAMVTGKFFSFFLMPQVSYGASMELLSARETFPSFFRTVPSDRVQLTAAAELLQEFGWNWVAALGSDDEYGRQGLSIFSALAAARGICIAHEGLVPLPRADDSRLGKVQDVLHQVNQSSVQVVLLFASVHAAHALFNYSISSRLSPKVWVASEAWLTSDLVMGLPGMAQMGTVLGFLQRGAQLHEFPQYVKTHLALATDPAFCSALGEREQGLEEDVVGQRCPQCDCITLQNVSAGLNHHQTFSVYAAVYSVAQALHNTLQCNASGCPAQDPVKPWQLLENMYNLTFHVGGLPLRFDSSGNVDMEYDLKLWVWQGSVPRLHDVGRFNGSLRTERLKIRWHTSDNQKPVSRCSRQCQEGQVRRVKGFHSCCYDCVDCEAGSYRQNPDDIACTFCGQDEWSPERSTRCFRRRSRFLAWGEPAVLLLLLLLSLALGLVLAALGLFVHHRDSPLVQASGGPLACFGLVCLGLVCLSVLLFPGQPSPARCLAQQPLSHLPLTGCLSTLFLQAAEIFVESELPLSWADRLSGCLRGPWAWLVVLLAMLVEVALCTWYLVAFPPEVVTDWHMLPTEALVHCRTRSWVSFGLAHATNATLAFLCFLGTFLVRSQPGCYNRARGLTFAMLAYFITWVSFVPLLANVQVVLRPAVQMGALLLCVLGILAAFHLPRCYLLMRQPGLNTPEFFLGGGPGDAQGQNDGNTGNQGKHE
Description: as §1, §2

humans = details: sub-millimolar concentrations; cited from earlier work

For `COc1ccc(CCC(=O)c2c(O)cc(O[C@@H]3O[C@H](CO)[C@@H](O)[C@H](O)[C@H]3O[C@@H]3O[C@@H](C)[C@H](O)[C@@H](O)[C@H]3O)cc2O)cc1O` [neohesperidin dihydrochalcone], the “behavioral response to human sweet tastants” value [1] is listed as “still do not respond”, the cell response [2] is listed as “do not respond” and the preference in rodents (rodents) is listed as “no preference”. The cell response [3] was “robustly respond” and the “sweet taste to humans” value (humans) was “taste sweet”.
